Counter-ions that a name gives are not always drawn.
Tests used:
human FXR = target: T1, human FXR (Homo sapiens, UniProt Q96RI1); assay: FXR reporter assay (cellular FXR activities); type: cell-based; conditions: for EC50: FXR reporter cells, 24 hours incubation, luciferase, read-out: Reporter Cell EC50; for Emax: read-out: Emax (%) (GW4064 Emax = 100%)
T1 construct: expressed in transfected cells
T1 sequence (Q96RI1 1-486): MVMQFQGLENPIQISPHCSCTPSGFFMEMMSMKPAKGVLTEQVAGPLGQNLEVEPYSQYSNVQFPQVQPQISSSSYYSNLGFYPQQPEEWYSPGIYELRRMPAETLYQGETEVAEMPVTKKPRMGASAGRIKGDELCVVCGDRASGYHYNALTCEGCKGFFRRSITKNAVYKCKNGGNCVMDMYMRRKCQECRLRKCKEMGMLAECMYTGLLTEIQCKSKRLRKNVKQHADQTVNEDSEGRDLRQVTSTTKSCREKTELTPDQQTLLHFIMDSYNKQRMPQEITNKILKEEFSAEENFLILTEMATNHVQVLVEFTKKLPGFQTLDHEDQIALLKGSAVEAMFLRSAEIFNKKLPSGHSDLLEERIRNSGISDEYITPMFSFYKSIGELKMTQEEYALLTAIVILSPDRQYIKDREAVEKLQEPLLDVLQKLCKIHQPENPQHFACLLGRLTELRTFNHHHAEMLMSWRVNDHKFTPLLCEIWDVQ
How it was run: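 EC50 derived from luciferase read-out after 24 h (37 °C, 5% CO2) treatment of human-FXR-expressing reporter cells with serially diluted compound.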

Mouse pharmacokinetics = type: in vivo; set-up: concentration or dose not given beside the values; conditions: mouse; Balb/c male mice; blood samples 15 to 1140 min; LC-MS/MS; read-out: AUC
Method: To evaluate the pharmacokinetics test, the invented 18 compounds of examples were determined as follows. Blood samples are collected at 15, 30, 60, 120, 240, 480, 1140 min. Quantification is by using a LC-MS/MS method specific to the selected compound. Pharmacokinetics parameters are calculated using WinNonLinnon compartmental analysis software.

Structure (SMILES)	EC50 (human FXR)	Emax (human FXR)	AUC (Mouse pharmacokinetics)
O=C(O)c1cccc(C#Cc2ccc(OCc3c(-c4c(Cl)cccc4Cl)noc3C3CC3)cc2C(F)(F)F)c1 [Compound I-3, 3-((4-((5-cyclopropyl-3-(2,6-dichlorophenyl)isoxazol-4-yl)methoxy)-2-(trifluromethyl)phenyl)ethynyl)benzoic acid]	200 to 1000 nM	> 100%	760 ng·h/mL
CNc1cc(C#Cc2ccc(OCc3c(-c4c(Cl)cccc4Cl)noc3C3CC3)cc2Cl)cc(C(=O)O)c1 [Compound I-52, 3-((2-chloro-4-((5-cyclopropyl-3-(2,6-dichlorophenyl)isoxazol-4-yl)methoxy)phenyl)ethynyl)-5-(methylamino)benzoic acid]	20 to 60 nM	> 100%	3310 ng·h/mL
O=C(O)c1cncc(C#Cc2ccc(OCc3c(-c4c(Cl)cccc4Cl)noc3C3CC3)cc2Cl)c1 [Compound I-20, 5-((2-chloro-4-((5-cyclopropyl-3-(2,6-dichlorophenyl)isoxazol-4-yl)methoxy)phenyl)ethynyl)nicotinic acid]	60 to 200 nM	94%	438 ng·h/mL
CC(C)(C)OC(=O)Nc1cc(C#Cc2ccc(OCc3c(-c4c(Cl)cccc4Cl)noc3C3CC3)cc2Cl)cc(C(=O)O)c1 [Compound I-77, 3-((tert-butoxycarbonyl)amino)-5-((2-chloro-4-((5-cyclopropyl-3-(2,6-dichlorophenyl)isoxazol-4-yl)methoxy)phenyl)ethynyl)benzoic acid]	≤ 20 nM	100%	1010 ng·h/mL
O=C(O)c1cccc(C#Cc2ccc(OCc3c(-c4c(Cl)cccc4Cl)noc3C3CC3)cc2)c1 [Compound I-2, 3-((4-((5-cyclopropyl-3-(2,6-dichlorophenyl)isoxazol-4-yl)methoxy)phenyl)ethynyl)benzoic acid]	> 1000 nM	> 100%	277 ng·h/mL
Cc1cc(C#Cc2ccc(OCc3c(-c4c(Cl)cccc4Cl)noc3C3CC3)cc2Cl)cc(C(=O)O)c1 [Compound I-63, 3-((2-chloro-4-((5-cyclopropyl-3-(2,6-dichlorophenyl)isoxazol-4-yl)methoxy)phenyl)ethynyl)-5-methylbenzoic acid]	60 to 200 nM	78%	11900 ng·h/mL
O=C(O)c1cc(C#Cc2ccc(OCc3c(-c4c(Cl)cccc4Cl)noc3C3CC3)cc2Cl)cc2[nH]ncc12 [Compound I-99, 6-((2-chloro-4-((5-cyclopropyl-3-(2,6-dichlorophenyl)isoxazol-4-yl)methoxy)phenyl)ethynyl)-1H-indazole-4-carboxylic acid]	60 to 200 nM	86%	205 ng·h/mL
O=C(O)c1ccc(F)c(C#Cc2ccc(OCc3c(-c4c(Cl)cccc4Cl)noc3C3CC3)cc2Cl)c1 [Compound I-38, 3-((2-chloro-4-((5-cyclopropyl-3-(2,6-dichlorophenyl)isoxazol-4-yl)methoxy)phenyl)ethynyl)-4-fluorobenzoic acid]	60 to 200 nM	92%	1000 ng·h/mL
O=C(O)c1ccc(Cl)c(C#Cc2ccc(OCc3c(-c4c(Cl)cccc4Cl)noc3C3CC3)cc2Cl)c1 [Compound I-28, 4-chloro-3-((2-chloro-4-((5-cyclopropyl-3-(2,6-dichlorophenyl)isoxazol-4-yl)methoxy)phenyl)ethynyl)benzoic acid]	60 to 200 nM	91%	1780 ng·h/mL
CC(C)c1nc2cc(C#Cc3ccc(OCc4c(-c5c(Cl)cccc5Cl)noc4C4CC4)cc3Cl)cc(C(=O)O)c2o1 [Compound I-106, 5-((2-chloro-4-((5-cyclopropyl-3-(2,6-dichlorophenyl)isoxazol-4-yl)methoxy)phenyl)ethynyl)-2-isopropylbenzo[d]oxazole-7-carboxylic acid]	20 to 60 nM	96%	2250 ng·h/mL
Nc1cc(C#Cc2ccc(OCc3c(-c4c(Cl)cccc4Cl)noc3C3CC3)cc2Cl)cc(C(=O)O)c1 [Compound I-25, 3-amino-5-((2-chloro-4-((5-cyclopropyl-3-(2,6-dichlorophenyl)isoxazol-4-yl)methoxy)phenyl)ethynyl)benzoic acid]	60 to 200 nM	97%	722 ng·h/mL
CC(C)Nc1cc(C#Cc2ccc(OCc3c(-c4c(Cl)cccc4Cl)noc3C3CC3)cc2Cl)cc(C(=O)O)c1 [Compound I-54, 3-((2-chloro-4-((5-cyclopropyl-3-(2,6-dichlorophenyl)isoxazol-4-yl)methoxy)phenyl)ethynyl)-5-(isopropylamino)benzoic acid]	≤ 20 nM	> 100%	934 ng·h/mL
CNCc1cc(C#Cc2ccc(OCc3c(-c4c(Cl)cccc4Cl)noc3C3CC3)cc2Cl)cc(C(=O)O)c1 [Compound I-44, 3-((2-chloro-4-((5-cyclopropyl-3-(2,6-dichlorophenyl)isoxazol-4-yl)methoxy)phenyl)ethynyl)-5-((methylamino)methyl)benzoic acid]	200 to 1000 nM	> 100%	
COC(Cn1ccc2c(C#Cc3ccc(OCc4c(-c5c(Cl)cccc5Cl)noc4C4CC4)cc3Cl)cc(C(=O)O)cc21)OC [Compound I-96, 4-((2-chloro-4-((5-cyclopropyl-3-(2,6-dichlorophenyl)isoxazol-4-yl)methoxy)phenyl)ethynyl)-1-(2,2-dimethoxyethyl)-1H-indole-6-carboxylic acid]	≤ 20 nM	98%	
CS(=O)(=O)Nc1cc(C#Cc2ccc(OCc3c(-c4c(Cl)cccc4Cl)noc3C3CC3)cc2Cl)cc(C(=O)O)c1 [Compound I-86, 3-((2-chloro-4-((5-cyclopropyl-3-(2,6-dichlorophenyl)isoxazol-4-yl)methoxy)phenyl)ethynyl)-5-(methylsulfonamido)benzoic acid]	60 to 200 nM	100%	
CCNCc1cc(C#Cc2ccc(OCc3c(-c4c(Cl)cccc4Cl)noc3C3CC3)cc2Cl)cc(C(=O)O)c1 [Compound I-45, 3-((2-chloro-4-((5-cyclopropyl-3-(2,6-dichlorophenyl)isoxazol-4-yl)methoxy)phenyl)ethynyl)-5-((ethylamino)methyl)benzoic acid]	200 to 1000 nM	88%	
O=C(O)c1cc(C#Cc2ccc(OCc3c(-c4c(Cl)cccc4Cl)noc3C3CC3)cc2Cl)cc2[nH]ccc12 [Compound I-101, 6-((2-chloro-4-((5-cyclopropyl-3-(2,6-dichlorophenyl)isoxazol-4-yl)methoxy)phenyl)ethynyl)-1H-indole-4-carboxylic acid]	≤ 20 nM	97%	
CC(C)(O)Cn1ccc2c(C#Cc3ccc(OCc4c(-c5c(Cl)cccc5Cl)noc4C4CC4)cc3Cl)cc(C(=O)O)cc21 [Compound I-98, 4-((2-chloro-4-((5-cyclopropyl-3-(2,6-dichlorophenyl)isoxazol-4-yl)methoxy)phenyl)ethynyl)-1-(2-hydroxy-2-methylpropyl)-1H-indole-6-carboxylic acid]	20 to 60 nM	> 100%	
COc1cc(C#Cc2ccc(OCc3c(-c4c(Cl)cccc4Cl)noc3C3CC3)cc2Cl)cc(C(=O)O)c1 [Compound I-40, 3-((2-chloro-4-((5-cyclopropyl-3-(2,6-dichlorophenyl)isoxazol-4-yl)methoxy)phenyl)ethynyl)-5-methoxybenzoic acid]	20 to 60 nM	83%	
O=C(O)c1cc(C#Cc2ccc(OCc3c(-c4c(Cl)cccc4Cl)noc3C3CC3)cc2Cl)c2ccn(CCO)c2c1 [Compound I-97, 4-((2-chloro-4-((5-cyclopropyl-3-(2,6-dichlorophenyl)isoxazol-4-yl)methoxy)phenyl)ethynyl)-1-(2-hydroxyethyl)-1H-indole-6-carboxylic acid]	≤ 20 nM	94%	
O=C(O)c1cc(C#Cc2ccc(OCc3c(-c4c(Cl)cccc4Cl)noc3C3CC3)cc2Cl)cc(N2CCC2)c1 [Compound I-55, 3-(azetidin-1-yl)-5-((2-chloro-4-((5-cyclopropyl-3-(2,6-dichlorophenyl)isoxazol-4-yl)methoxy)phenyl)ethynyl)benzoic acid]	20 to 60 nM	> 100%	
CN(C)Cc1cc(C#Cc2ccc(OCc3c(-c4c(Cl)cccc4Cl)noc3C3CC3)cc2Cl)cc(C(=O)O)c1 [Compound I-49, 3-((2-chloro-4-((5-cyclopropyl-3-(2,6-dichlorophenyl)isoxazol-4-yl)methoxy)phenyl)ethynyl)-5-((dimethylamino)methyl)benzoic acid]	20 to 60 nM	> 100%	
NS(=O)(=O)c1cccc(C#Cc2ccc(OCc3c(-c4c(Cl)cccc4Cl)noc3C3CC3)cc2Cl)c1 [Compound I-12, 3-((2-chloro-4-((5-cyclopropyl-3-(2,6-dichlorophenyl)isoxazol-4-yl)methoxy)phenyl)ethynyl)benzenesulfonamide]	200 to 1000 nM	> 100%	
O=C(O)c1cc(C#Cc2ccc(OCc3c(-c4c(Cl)cccc4Cl)noc3C3CC3)cc2Cl)cc(NC2CCNCC2)c1 [Compound I-58, 3-((2-chloro-4-((5-cyclopropyl-3-(2,6-dichlorophenyl)isoxazol-4-yl)methoxy)phenyl)ethynyl)-5-(piperidin-4-ylamino)benzoic acid hydrochloride]	> 1000 nM	75%	
